The values that follow come from ChEMBL document CHEMBL1141515, “2-(1H-Imidazol-4-yl)ethanamine and 2-(1H-pyrazol-1-yl)ethanamine side chain variants of the IGF-1R inhibitor BMS-536924” (Bioorg Med Chem Lett, 2008).

Series [1] concerns Mus musculus. Description: AUC (0 to 4h) in mouse at 20 mg/kg, po. It counts as ADME, organism-based, Plasma. Details: time < 4 hr, dose 20 mg/kg, route oral. To be noted: in vivo.
The target of series [2] is T1, Insulin-like growth factor 1 receptor (Homo sapiens, UniProt P08069). Description: Inhibition of IGF1R.
T1 sequence (P08069 31-736 limits assumed): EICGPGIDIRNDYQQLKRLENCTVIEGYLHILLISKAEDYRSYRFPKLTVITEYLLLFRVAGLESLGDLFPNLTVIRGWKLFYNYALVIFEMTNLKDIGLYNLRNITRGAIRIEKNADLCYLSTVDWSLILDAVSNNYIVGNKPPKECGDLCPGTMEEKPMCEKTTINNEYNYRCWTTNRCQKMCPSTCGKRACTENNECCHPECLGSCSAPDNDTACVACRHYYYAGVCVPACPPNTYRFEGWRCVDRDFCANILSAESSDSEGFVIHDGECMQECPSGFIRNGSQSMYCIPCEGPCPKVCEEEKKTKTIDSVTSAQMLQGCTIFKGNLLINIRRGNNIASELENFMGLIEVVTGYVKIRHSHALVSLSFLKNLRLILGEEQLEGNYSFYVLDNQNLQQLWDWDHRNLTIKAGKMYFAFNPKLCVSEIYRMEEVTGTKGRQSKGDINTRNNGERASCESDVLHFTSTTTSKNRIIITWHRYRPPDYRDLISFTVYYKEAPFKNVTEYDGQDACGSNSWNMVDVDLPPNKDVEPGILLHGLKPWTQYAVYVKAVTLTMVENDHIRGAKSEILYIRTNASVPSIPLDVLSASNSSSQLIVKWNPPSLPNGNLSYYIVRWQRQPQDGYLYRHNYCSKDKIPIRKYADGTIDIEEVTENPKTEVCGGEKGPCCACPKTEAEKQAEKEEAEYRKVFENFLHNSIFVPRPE
T1 sequence (P08069 741-1367 limits assumed): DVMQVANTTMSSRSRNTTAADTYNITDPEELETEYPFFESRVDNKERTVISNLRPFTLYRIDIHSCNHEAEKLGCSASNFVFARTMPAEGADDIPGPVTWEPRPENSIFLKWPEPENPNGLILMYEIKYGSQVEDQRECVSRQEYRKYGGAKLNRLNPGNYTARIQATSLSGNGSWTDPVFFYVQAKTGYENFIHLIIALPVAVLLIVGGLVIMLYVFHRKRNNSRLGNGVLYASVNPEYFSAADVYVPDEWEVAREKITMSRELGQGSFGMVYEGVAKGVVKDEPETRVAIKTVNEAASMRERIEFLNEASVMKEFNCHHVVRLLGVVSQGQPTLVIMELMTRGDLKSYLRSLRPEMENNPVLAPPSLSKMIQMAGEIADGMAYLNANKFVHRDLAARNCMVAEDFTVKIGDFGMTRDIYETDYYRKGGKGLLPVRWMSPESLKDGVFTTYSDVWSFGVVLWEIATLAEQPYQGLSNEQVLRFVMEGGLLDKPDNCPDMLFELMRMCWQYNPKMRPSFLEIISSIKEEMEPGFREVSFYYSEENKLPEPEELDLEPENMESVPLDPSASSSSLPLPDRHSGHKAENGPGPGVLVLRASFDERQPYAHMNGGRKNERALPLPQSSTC
Series [3] concerns the target T1, Insulin-like growth factor 1 receptor. As to the kind of experiment: Inhibition of IGF1R expressed in SAL cells. It counts as cell-based.
In series [4] the test system is Serum. Description: Protein binding in human serum. It counts as ADME, cell-free.
Series [5] in a line: Protein binding in mouse serum. It counts as ADME, cell-free. To be noted: read-out: PB.

`Cc1nn(CCNc2cc[nH]c(=O)c2-c2nc3c(C)cc(N4CCOCC4)cc3[nH]2)cc1Cl`: in series [1], the exposure (AUC) (in general, concentration integrated over time) is 57.8 µM·h.

In series [1], `COC(=O)c1cnn(CCNc2cc[nH]c(=O)c2-c2nc3c(C)cc(N4CCOCC4)cc3[nH]2)c1` gave an AUC of 14.1 µM·h.

Turning to `Cc1cc(N2CCOCC2)cc2[nH]c(-c3c(NCCc4ncn(C)c4Cl)cc[nH]c3=O)nc12`, the AUC in series [1] was 8.2 µM·h.

In the case of `CCn1cnc(CCNc2cc[nH]c(=O)c2-c2nc3c(C)cc(N4CCOCC4)cc3[nH]2)c1Br`, the figures for the half-inhibitory concentration (IC50) in series [2] and in series [3] were 172 nM and 284 nM, respectively.

`Cc1ccn(CCNc2cc[nH]c(=O)c2-c2nc3c(C)cc(N4CCOCC4)cc3[nH]2)n1`: the IC50 (usually the point on the concentration scale where inhibition reaches its midpoint) came out at 290 nM in series [2] and 422 nM in series [3]. Besides, the area under the curve (AUC) in series [1] worked out at 1.2 µM·h.

Consider `Cc1cc(N2CCOCC2)cc2[nH]c(-c3c(NCCn4cc(Cl)cn4)cc[nH]c3=O)nc12`, for which the AUC in series [1] worked out at 90.3 µM·h.

`Cc1cc(N2CCOCC2)cc2[nH]c(-c3c(NCCn4ncc(Br)c4C)cc[nH]c3=O)nc12` registered an AUC in series [1] of 33 µM·h.

On to `CCOC(=O)c1cnn(CCNc2cc[nH]c(=O)c2-c2nc3c(C)cc(N4CCOCC4)cc3[nH]2)c1`, for which, in series [1], the area under the curve (AUC) came to 4.9 µM·h.

`Cc1cc(N2CCOCC2)cc2[nH]c(-c3c(NCCn4cccn4)cc[nH]c3=O)nc12` registered an AUC in series [1] of 1.6 µM·h.

`Cc1nn(CCNc2cc[nH]c(=O)c2-c2nc3c(C)cc(N4CCOCC4)cc3[nH]2)cc1Br` returned an exposure (AUC) in series [1] of 132 µM·h.

`Cc1cc(N2CCOCC2)cc2[nH]c(-c3c(NCCn4cc(Br)c(CO)n4)cc[nH]c3=O)nc12`: the exposure (AUC) in series [1] came out at 2 µM·h.

With `Cc1cc(N2CCOCC2)cc2[nH]c(-c3c(NCCc4nc(Cl)n(C)c4Cl)cc[nH]c3=O)nc12`, in series [1], the exposure (AUC) worked out at 32.2 µM·h.

`Cc1cc(N2CCOCC2)cc2[nH]c(-c3c(NC[C@@H](O)c4cccc(Cl)c4)cc[nH]c3=O)nc12`: the PB in series [4] is 99.6%. Further, the fraction unbound in series [5] is under 0.001. For the same molecule, in series [1], the AUC was 50.9 µM·h.

In turn, `CCn1cnc(CCNc2cc[nH]c(=O)c2-c2nc3c(C)cc(N4CCOCC4)cc3[nH]2)c1Cl` showed an AUC in series [1] of 50.9 µM·h.

For `Cc1cc(N2CCOCC2)cc2[nH]c(-c3c(NCCc4nc(C)n(C)c4Cl)cc[nH]c3=O)nc12`, in series [1], the AUC is 36 µM·h.

Regarding `Cc1cc(N2CCOCC2)cc2[nH]c(-c3c(NCCc4cn(C)cn4)cc[nH]c3=O)nc12`, the AUC in series [1] was found to be 3.8 µM·h.

In the case of `Cc1cnn(CCNc2cc[nH]c(=O)c2-c2nc3c(C)cc(N4CCOCC4)cc3[nH]2)c1`, the AUC in series [1] worked out at 2.7 µM·h.

As to `Cc1cc(N2CCOCC2)cc2[nH]c(-c3c(NCCn4nccc4C)cc[nH]c3=O)nc12`, the figures for the IC50 in series [2] and in series [3] were 270 nM and 542 nM, respectively. This molecule also registered an AUC in series [1] of 5.2 µM·h.
